Measurements as given in ChEMBL document CHEMBL4196079, “Molecular interaction of novel benzothiazolyl triazolium analogues with calf thymus DNA and HSA-their biological investigation as potent antimicrobial agents” (Eur J Med Chem, 2018).
≈ marks a conversion by molar mass, not a printed value.

How the values were obtained:
[1] = tested on: Escherichia coli; test: Antibacterial activity against Escherichia coli JM109 after 24 hrs by NCCLS micro broth dilution method; format: functional; conditions: JM109, 24 h
[2] = tested on: Pichia norvegensis; test: Antifungal activity against Candida mycoderma after 24 hrs by NCCLS micro broth dilution method; format: functional
[3] = tested on: Salmonella typhi; test: Antibacterial activity against Salmonella typhi after 24 hrs by NCCLS micro broth dilution method; format: functional, Salmonella enterica subsp. enterica serovar Typhi; conditions: Salmonella enterica
[4] = tested on: Bacillus; test: Antibacterial activity against Bacillus proteus ATCC 13315 after 24 hrs by NCCLS micro broth dilution method; format: functional; conditions: ATCC 13315, 24 h
[5] = tested on: Saccharomyces cerevisiae; test: Antifungal activity against Saccharomyces cerevisiae after 24 hrs by NCCLS micro broth dilution method; format: functional
[6] = tested on: Escherichia coli; test: Antibacterial activity against Escherichia coli DH52 after 24 hrs by NCCLS micro broth dilution method; format: functional; conditions: DH52, 24 h
[7] = tested on: Micrococcus luteus; test: Antibacterial activity against Micrococcus luteus ATCC 4698 after 24 hrs by micro broth dilution method; format: functional; conditions: ATCC 4698, 24 h
[8] = tested on: Pseudomonas aeruginosa; test: Antibacterial activity against Pseudomonas aeruginosa ATCC 27853 after 24 hrs by NCCLS micro broth dilution method; format: functional; conditions: ATCC 27853, 24 h
[9] = tested on: Cyberlindnera jadinii; test: Antifungal activity against Candida utilis after 24 hrs by NCCLS micro broth dilution method; format: functional; conditions: Williopsis jadinii
[10] = tested on: Bacillus subtilis; test: Antibacterial activity against Bacillus subtilis ATCC 21216 after 24 hrs by NCCLS micro broth dilution method; format: functional; conditions: ATCC 21216, 24 h
[11] = tested on: Staphylococcus aureus; test: Antibacterial activity against Staphylococcus aureus ATCC 25923 after 24 hrs by NCCLS micro broth dilution method; format: functional; conditions: ATCC 25923, 24 h
[12] = tested on: Shigella dysenteriae; test: Antibacterial activity against Shigella dysenteriae after 24 hrs by NCCLS micro broth dilution method; format: functional
[13] = tested on: Candida albicans; test: Antifungal activity against Candida albicans ATCC 76615 after 24 hrs by NCCLS micro broth dilution method; format: functional; conditions: ATCC 76615, 24 h
[14] = tested on: Aspergillus flavus; test: Antifungal activity against Aspergillus flavus after 24 hrs by NCCLS micro broth dilution method; format: functional
[15] = tested on: Staphylococcus aureus; test: Antibacterial activity against methicillin-resistant Staphylococcus aureus N315 after 24 hrs by NCCLS micro broth dilution method; format: functional; conditions: N315, 24 h

| Compound | MIC [1] | MIC [2] | MIC [3] | MIC [4] | MIC [5] | MIC [6] | MIC [7] | MIC [8] | MIC [9] | MIC [10] | MIC [11] | MIC [12] | MIC [13] | MIC [14] | MIC [15] |
| --- | --- | --- | --- | --- | --- | --- | --- | --- | --- | --- | --- | --- | --- | --- | --- |
| Fc1ccc(Cn2cc(COCc3c(-c4ccccc4)nc4sc5ccccc5n34)nn2)cc1 | 128 µg/mL (≈ 273 µM) | 32 µg/mL (≈ 68.2 µM) | 128 µg/mL (≈ 273 µM) | 128 µg/mL (≈ 273 µM) | 64 µg/mL (≈ 136 µM) | 128 µg/mL (≈ 273 µM) | 128 µg/mL (≈ 273 µM) | 128 µg/mL (≈ 273 µM) | 16 µg/mL (≈ 34.1 µM) | 128 µg/mL (≈ 273 µM) | 128 µg/mL (≈ 273 µM) | 128 µg/mL (≈ 273 µM) | 32 µg/mL (≈ 68.2 µM) | 256 µg/mL (≈ 545 µM) | 64 µg/mL (≈ 136 µM) |
| Clc1ccccc1Cn1cc(COCc2c(-c3ccccc3)nc3sc4ccccc4n23)nn1 | 8 µg/mL (≈ 16.5 µM) | 8 µg/mL (≈ 16.5 µM) | 64 µg/mL (≈ 132 µM) | 64 µg/mL (≈ 132 µM) | 64 µg/mL (≈ 132 µM) | 128 µg/mL (≈ 263 µM) | 128 µg/mL (≈ 263 µM) | 128 µg/mL (≈ 263 µM) | 64 µg/mL (≈ 132 µM) | 128 µg/mL (≈ 263 µM) | 64 µg/mL (≈ 132 µM) | 64 µg/mL (≈ 132 µM) | 16 µg/mL (≈ 32.9 µM) | 128 µg/mL (≈ 263 µM) | 64 µg/mL (≈ 132 µM) |
| Fc1ccccc1Cn1cc(COCc2c(-c3ccccc3)nc3sc4ccccc4n23)nn1 | 128 µg/mL (≈ 273 µM) | 16 µg/mL (≈ 34.1 µM) | 64 µg/mL (≈ 136 µM) | 128 µg/mL (≈ 273 µM) | 64 µg/mL (≈ 136 µM) | 128 µg/mL (≈ 273 µM) | 64 µg/mL (≈ 136 µM) | 128 µg/mL (≈ 273 µM) | 16 µg/mL (≈ 34.1 µM) | 128 µg/mL (≈ 273 µM) | 64 µg/mL (≈ 136 µM) | 128 µg/mL (≈ 273 µM) | 32 µg/mL (≈ 68.2 µM) | 128 µg/mL (≈ 273 µM) | 32 µg/mL (≈ 68.2 µM) |
| O=[N+]([O-])c1ccc(Cn2cc(COCc3c(-c4ccccc4)nc4sc5ccccc5n34)nn2)cc1 | 4 µg/mL (≈ 8.06 µM) | 32 µg/mL (≈ 64.4 µM) | 8 µg/mL (≈ 16.1 µM) | 32 µg/mL (≈ 64.4 µM) | 32 µg/mL (≈ 64.4 µM) | 16 µg/mL (≈ 32.2 µM) | 64 µg/mL (≈ 129 µM) | 64 µg/mL (≈ 129 µM) | 32 µg/mL (≈ 64.4 µM) | 64 µg/mL (≈ 129 µM) | 32 µg/mL (≈ 64.4 µM) | 32 µg/mL (≈ 64.4 µM) | 32 µg/mL (≈ 64.4 µM) | 256 µg/mL (≈ 516 µM) | 32 µg/mL (≈ 64.4 µM) |
| CCn1cc(C(=O)O)c(=O)c2cc(F)c(N3CCNCC3)cc21 [NORFLOXACIN] | 1 µg/mL (≈ 3.13 µM) |  | 4 µg/mL (≈ 12.5 µM) | 8 µg/mL (≈ 25.1 µM) |  | 1 µg/mL (≈ 3.13 µM) | 2 µg/mL (≈ 6.26 µM) | 16 µg/mL (≈ 50.1 µM) |  | 4 µg/mL (≈ 12.5 µM) | 2 µg/mL (≈ 6.26 µM) | 16 µg/mL (≈ 50.1 µM) |  |  | 8 µg/mL (≈ 25.1 µM) |
| CCCCCn1cc(COCc2c(-c3ccccc3)nc3sc4ccccc4n23)nn1 | 64 µg/mL (≈ 148 µM) | 16 µg/mL (≈ 37.1 µM) | 4 µg/mL (≈ 9.27 µM) | 64 µg/mL (≈ 148 µM) | 32 µg/mL (≈ 74.1 µM) | 32 µg/mL (≈ 74.1 µM) | 128 µg/mL (≈ 297 µM) | 128 µg/mL (≈ 297 µM) | 8 µg/mL (≈ 18.5 µM) | 64 µg/mL (≈ 148 µM) | 64 µg/mL (≈ 148 µM) | 4 µg/mL (≈ 9.27 µM) | 32 µg/mL (≈ 74.1 µM) | 256 µg/mL (≈ 593 µM) | 8 µg/mL (≈ 18.5 µM) |
| CCOc1ccc2c(c1)sc1nc(-c3ccccc3)c(COCc3cn(Cc4ccc([N+](=O)[O-])cc4)nn3)n12 | 2 µg/mL (≈ 3.7 µM) | 8 µg/mL (≈ 14.8 µM) | 4 µg/mL (≈ 7.4 µM) | 32 µg/mL (≈ 59.2 µM) | 16 µg/mL (≈ 29.6 µM) | 128 µg/mL (≈ 237 µM) | 512 µg/mL (≈ 947 µM) | 128 µg/mL (≈ 237 µM) | 4 µg/mL (≈ 7.4 µM) | 256 µg/mL (≈ 474 µM) | 128 µg/mL (≈ 237 µM) | 128 µg/mL (≈ 237 µM) | 32 µg/mL (≈ 59.2 µM) | 128 µg/mL (≈ 237 µM) | 128 µg/mL (≈ 237 µM) |
| Clc1ccc(Cn2cc(COCc3c(-c4ccccc4)nc4sc5ccccc5n34)nn2)cc1 | 128 µg/mL (≈ 263 µM) | 32 µg/mL (≈ 65.8 µM) | 64 µg/mL (≈ 132 µM) | 64 µg/mL (≈ 132 µM) | 16 µg/mL (≈ 32.9 µM) | 64 µg/mL (≈ 132 µM) | 64 µg/mL (≈ 132 µM) | 128 µg/mL (≈ 263 µM) | 64 µg/mL (≈ 132 µM) | 128 µg/mL (≈ 263 µM) | 64 µg/mL (≈ 132 µM) | 128 µg/mL (≈ 263 µM) | 32 µg/mL (≈ 65.8 µM) | 256 µg/mL (≈ 527 µM) | 64 µg/mL (≈ 132 µM) |
| CCOc1ccc2c(c1)sc1nc(-c3ccccc3)c(COCc3cn(Cc4ccc(F)cc4)nn3)n12 | 64 µg/mL (≈ 125 µM) | 8 µg/mL (≈ 15.6 µM) | 32 µg/mL (≈ 62.3 µM) | 64 µg/mL (≈ 125 µM) | 32 µg/mL (≈ 62.3 µM) | 32 µg/mL (≈ 62.3 µM) | 128 µg/mL (≈ 249 µM) | 64 µg/mL (≈ 125 µM) | 16 µg/mL (≈ 31.2 µM) | 64 µg/mL (≈ 125 µM) | 128 µg/mL (≈ 249 µM) | 16 µg/mL (≈ 31.2 µM) | 8 µg/mL (≈ 15.6 µM) | 64 µg/mL (≈ 125 µM) | 128 µg/mL (≈ 249 µM) |
| CCOc1ccc2c(c1)sc1nc(-c3ccccc3)c(COCc3cn(Cc4ccccc4F)nn3)n12 | 128 µg/mL (≈ 249 µM) | 32 µg/mL (≈ 62.3 µM) | 128 µg/mL (≈ 249 µM) | 64 µg/mL (≈ 125 µM) | 64 µg/mL (≈ 125 µM) | 128 µg/mL (≈ 249 µM) | 128 µg/mL (≈ 249 µM) | 128 µg/mL (≈ 249 µM) | 16 µg/mL (≈ 31.2 µM) | 256 µg/mL (≈ 498 µM) | 128 µg/mL (≈ 249 µM) | 64 µg/mL (≈ 125 µM) | 32 µg/mL (≈ 62.3 µM) | 128 µg/mL (≈ 249 µM) | 128 µg/mL (≈ 249 µM) |
| CCCCCCCn1cc(COCc2c(-c3ccccc3)nc3sc4cc(OCC)ccc4n23)nn1 | 64 µg/mL (≈ 127 µM) | 32 µg/mL (≈ 63.5 µM) | 128 µg/mL (≈ 254 µM) | 128 µg/mL (≈ 254 µM) | 64 µg/mL (≈ 127 µM) | 128 µg/mL (≈ 254 µM) | 128 µg/mL (≈ 254 µM) | 128 µg/mL (≈ 254 µM) | 64 µg/mL (≈ 127 µM) | 128 µg/mL (≈ 254 µM) | 128 µg/mL (≈ 254 µM) | 128 µg/mL (≈ 254 µM) | 32 µg/mL (≈ 63.5 µM) | 128 µg/mL (≈ 254 µM) | 64 µg/mL (≈ 127 µM) |
